Test results from patent US20230192626A1 (Baylor College of Medicine, priority 2020, published 2023).

Molecular target: T1, Human sEH (hsEH) (Homo sapiens, UniProt P34913)
T1 construct: purchased Cayman Chemicals
T1 sequence (P34913 1-555): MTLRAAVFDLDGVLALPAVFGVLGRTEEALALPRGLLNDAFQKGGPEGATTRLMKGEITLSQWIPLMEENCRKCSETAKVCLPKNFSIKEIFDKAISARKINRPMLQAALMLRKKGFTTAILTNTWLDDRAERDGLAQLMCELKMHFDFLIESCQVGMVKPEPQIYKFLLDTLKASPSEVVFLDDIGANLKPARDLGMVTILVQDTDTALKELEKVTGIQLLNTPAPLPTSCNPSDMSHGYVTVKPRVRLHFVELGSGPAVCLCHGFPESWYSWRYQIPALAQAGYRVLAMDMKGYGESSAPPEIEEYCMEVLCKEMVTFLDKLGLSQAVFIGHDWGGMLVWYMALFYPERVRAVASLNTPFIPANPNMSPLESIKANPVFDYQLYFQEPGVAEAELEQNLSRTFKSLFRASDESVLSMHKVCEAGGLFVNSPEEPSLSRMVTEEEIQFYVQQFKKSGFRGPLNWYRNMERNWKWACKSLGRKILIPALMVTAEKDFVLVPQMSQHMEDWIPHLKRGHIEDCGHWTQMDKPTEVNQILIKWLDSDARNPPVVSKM
Assay: fluorescence-based sEH biochemical inhibition assay (PHOME substrate)
Conditions: Table 1; hsEH 5 nM, PHOME 50 μM, 30° C.
Protocol: The benzimidazole-based compounds synthesized according to Example 1 were measured for activity. Using a fluorescence-based sEH biochemical inhibition assay, the IC50 value was measured for each benzimidazole-based compound. Human sEH (hsEH) and its substrate PHOME were purchased from Cayman Chemicals. IC50 values of hsEH inhibitors were determined by fluorescence. IC50 is defined as the concentration of the inhibitor that blocks 50% of the enzymatic activity. To a 96-well plate containing 10 μL enzyme (5 nM in water), 60 μL of H2O and 10 μL BisTris-HCl buffer (25 mM, pH 7.0) were added inhibitors with different concentrations. The mixture was incubated for 5 min at 30° C. prior to addition of 10 μL of PHOME substrate (50 μM). Fluorescence were measured at 30° C. with an excitation wavelength of 330 nm and an emission wavelength of 465 nm using a BioTek H1 plate reader. The IC50 values were calculated by non-linear regression fitting. The curve was generated from at least three separate runs, each in duplicates. Results are given as means and standard deviations. In Table 1, an IC50 value less than or equal to 1 μM is indicated as an “A.” an IC50 value from greater than 1 μM to less than 10 μM is indicated as a “B′” and an IC50 value of greater than or equal to 10 μM is indicated as a “C.”
Additional benzimidazole-based compounds as described herein were measured for activity according to the procedure outlined in Example 2. Briefly, using a fluorescence-based sEH biochemical inhibition assay, the IC50 value was measured for each benzimidazole-based compound.

IC50	Compound
≥ 10 µM	Cc1cc2nc(-c3ccccc3O)[nH]c2cc1C [Compound 9, 2-(5,6-dimethyl-1H-benzo[d]imidazol-2-yl)phenol]
≥ 10 µM	O=C(Nc1cc(C(F)(F)F)cc(C(F)(F)F)c1)Nc1nc2ccccc2[nH]1 [Compound 14, 1-(1H-benzo[d]imidazol-2-yl)-3-(3,5-bis(trifluoromethyl)phenyl)urea]
≤ 1 µM	Cc1cc2nc(-c3cccc(C(C)(C)C)c3)[nH]c2cc1C [Compound 27, 2-(3-(tert-butyl)phenyl)-5,6-dimethyl-1H-benzo[d]imidazole]
≤ 1 µM	O=c1[nH]nc(-c2ccc(-c3nc4cc(F)c(F)cc4[nH]3)cc2)o1 [Compound 55, 5-(4-(5,6-difluoro-1H-benzo[d]imidazol-2-yl)phenyl)-1,3,4-oxadiazol-2(3H)-one]
1 to 10 µM	CC(C)(C)c1ccc2[nH]c(-c3ccc(C(F)(F)F)cc3)nc2c1 [Compound 40, 5-(tert-butyl)-2-(4-(trifluoromethyl)phenyl)-1H-benzo[d]imidazole]
1 to 10 µM	CCCN(CCC)S(=O)(=O)c1ccc(-c2nc3cc(C)c(C)cc3[nH]2)cc1 [Compound 3, 4-(5,6-dimethyl-1H-benzo[d]imidazol-2-yl)-N,N-dipropylbenzenesulfonamide]
1 to 10 µM	Cc1ccc(-c2nc3cc(C)c(C)cc3[nH]2)cn1 [Compound 21, 5,6-dimethyl-2-(6-methylpyridin-3-yl)-1H-benzo[d]imidazole]
≥ 10 µM	Cc1cc2nc(-c3ccncc3)[nH]c2cc1C [Compound 29, 5,6-dimethyl-2-(pyridin-4-yl)-1H-benzo[d]imidazole]
≤ 1 µM	Cc1cc2nc(-c3ccc4ccccc4c3)[nH]c2cc1C [Compound 28, 5,6-dimethyl-2-(naphthalen-2-yl)-1H-benzo[d]imidazole]
≥ 10 µM	Cc1cc2nc(-c3ccc(F)cc3F)[nH]c2cc1C [Compound 10, 2-(2,4-difluorophenyl)-5,6-dimethyl-1H-benzo[d]imidazole]
≥ 10 µM	Oc1ccc(-c2nc3cc(F)c(F)cc3[nH]2)cc1 [Compound 33, 4-(5,6-difluoro-1H-benzo[d]imidazol-2-yl)phenol]
1 to 10 µM	Cc1cc2nc(Nc3ccc(OC(F)(F)F)cc3)[nH]c2cc1C [Compound 4, 5,6-dimethyl-N-(4-(trifluoromethoxy)phenyl)-1H-benzo[d]imidazol-2-amine]
≥ 10 µM	Cc1cc2nc(-c3ccccn3)[nH]c2cc1C [Compound 25, 5,6-dimethyl-2-(pyridin-2-yl)-1H-benzo[d]imidazole]
≤ 1 µM	CCc1ccc(-c2nc3cc(C)c(C)cc3[nH]2)cc1 [Compound 5, 2-(4-ethylphenyl)-5,6-dimethyl-1H-benzo[d]imidazole]
1 to 10 µM	COc1cc(-c2nc3cc(C)c(C)cc3[nH]2)ccn1 [Compound 24, 2-(2-methoxypyridin-4-yl)-5,6-dimethyl-1H-benzo[d]imidazole]
≤ 1 µM	Cc1cc2nc(-c3ccc(C(F)(F)F)cc3)[nH]c2cc1C [Compound 19, 5,6-dimethyl-2-(4-(trifluoromethyl)phenyl)-1H-benzo[d]imidazole]
≥ 10 µM	FC(F)(F)c1ccc(-c2nc3cc(Br)c(Br)cc3[nH]2)cc1 [Compound 38, 5,6-dibromo-2-(4-(trifluoromethyl)phenyl)-1H-benzo[d]imidazole]
1 to 10 µM	COc1cc2nc(-c3ccc(C(F)(F)F)cc3)[nH]c2cc1OC [Compound 42, 5,6-dimethoxy-2-(4-(trifluoromethyl)phenyl)-1H-benzo[d]imidazole]
1 to 10 µM	Fc1cc2nc(-c3ccc(-c4ccccc4)cc3)[nH]c2cc1F [Compound 17, 2-([1,1′-biphenyl]-4-y)-5,6-difluoro-1H-benzo[d]imidazole]
1 to 10 µM	FC(F)(F)c1ccc(-c2nc3ccccc3[nH]2)cc1 [Compound 36, 2-(4-(trifluoromethyl)phenyl)-1H-benzo[d]imidazole]
≥ 10 µM	Cc1cc2nc(-c3cccnc3)[nH]c2cc1C [Compound 30, 5,6-dimethyl-2-(pyridin-3-yl)-1H-benzo[d]imidazole]
